Read-outs that look alike come from different tables or passages of the source.
Assays:
Type in all cases: in vivo
Nephotettix virescens = assay: Rice green leafhopper (Nephotettix virescens) rice seedling spray test; details: read-out: mortality in comparison with untreated controls
Experimental: Rice seedlings were cleaned and washed 24 hours before spraying. The active compounds were formulated in 50:50 acetone:water (vol:vol), and 0.1% vol/vol surfactant (EL 620) was added. Potted rice seedlings were sprayed with 5 ml test solution, air dried, placed in cages and inoculated with 10 adults. Treated rice plants were kept at about 28-29° C. and relative humidity of about 50-60%. Percent mortality was recorded after 72 hours.

Heliothis virescens = assay: Tobacco budworm (Heliothis virescens) diet microtiter plate test; details: 120 h, read-out: mortality in comparison with untreated controls (egg and larval mortality)
Experimental: For evaluating control of tobacco budworm (Heliothis virescens) the test unit consisted of 96-well-microtiter plates containing an insect diet and 15-25 H. virescens eggs. The compounds were formulated using a solution containing 75% v/v water and 25% v/v DMSO. Different concentrations of formulated compounds were sprayed onto the insect diet at 10 μl, using a custom built micro atomizer, at two replications.
After application, microtiter plates were incubated at about 28±1° C. and about 80±5% relative humidity for 5 days. Egg and larval mortality was then visually assessed.

Megoura viciae = assay: Vetch aphid (Megoura viciae) leaf disk test; details: foliar, 120 h, read-out: mortality in comparison with untreated controls (aphid mortality)
Experimental: For evaluating control of vetch aphid (Megoura viciae) through contact or systemic means the test unit consisted of 24-well-microtiter plates containing broad bean leaf disks.
The compounds were formulated using a solution containing 75% v/v water and 25% v/v DMSO. Different concentrations of formulated compounds were sprayed onto the leaf disks at 2.5 μl, using a custom built micro atomizer, at two replications.
After application, the leaf disks were air-dried and 5-8 adult aphids placed on the leaf disks inside the microtiter plate wells. The aphids were then allowed to suck on the treated leaf disks and incubated at about 23±1° C. and about 50±5% relative humidity for 5 days. Aphid mortality and fecundity was then visually assessed.

Nilaparvata lugens = assay: Rice brown plant hopper (Nilaparvata lugens) rice seedling spray test; details: read-out: mortality in comparison with untreated controls
Experimental: Rice seedlings were cleaned and washed 24 hours before spraying. The active compounds were formulated in 50:50 acetone:water (vol:vol) and 0.1% vol/vol surfactant (EL 620) was added. Potted rice seedlings were sprayed with 5 ml test solution, air dried, placed in cages and inoculated with 10 adults. Treated rice plants were kept at about 28-29° C. and relative humidity of about 50-60%. Percent mortality was recorded after 72 hours.

Myzus persicae = assay: Green peach aphid (Myzus persicae) systemic artificial diet test; details: 72 h, read-out: mortality in comparison with untreated controls (aphid mortality)
Text: For evaluating control of green peach aphid (Myzus persicae) through systemic means the test unit consisted of 96-well-microtiter plates containing liquid artificial diet under an artificial membrane.
The compounds were formulated using a solution containing 75% v/v water and 25% v/v DMSO. Different concentrations of formulated compounds were pipetted into the aphid diet, using a custom built pipetter, at two replications.
After application, 5-8 adult aphids were placed on the artificial membrane inside the microtiter plate wells. The aphids were then allowed to suck on the treated aphid diet and incubated at about 23±1° C. and about 50±5% relative humidity for 3 days. Aphid mortality and fecundity was then visually assessed.

Dichromothrips corbetti = assay: Orchid thrips (Dichromothrips corbetti) floral-immersion test; details: read-out: mortality in comparison with untreated controls
Experimental: Dichromothrips corbetti adults used for bioassay were obtained from a colony maintained continuously under laboratory conditions. For testing purposes, the test compound is diluted in a 1:1 mixture of acetone:water (vol:vol), plus 0.01% vol/vol Alkannuls® EL 620 surfactant.
Thrips potency of each compound was evaluated by using a floral-immersion technique. Plastic petri dishes were used as test arenas. All petals of individual, intact orchid flowers were dipped into treatment solution and allowed to dry. Treated flowers were placed into individual petri dishes along with about 20 adult thrips. The petri dishes were then covered with lids. All test arenas were held under continuous light and a temperature of about 28° C. for duration of the assay. After 3 days, the numbers of live thrips were counted on each flower, and along inner walls of each petri dish. The percent mortality was recorded 72 hours after treatment.

Tetranychus spp = assay: Spider mite (Tetranychus spp) potted cotton plant spray test; details: sprayed potted cotton plants, 72 hours after treatment, read-out: mortality in comparison with untreated controls
Experimental: The active compound is dissolved at the desired concentration in a mixture of 1:1 (vol:vol) distilled water:acetone. The test solution is prepared at the day of use. Potted cotton plants at two weeks of age were cleaned, air dried and inoculated with approximately 50 mites of various stages. The potted plants are sprayed after the pest population has been recorded. Percent mortality is recorded 72 hours after treatment.

Anthonomus grandis = assay: Boll weevil (Anthonomus grandis) diet microtiter plate test; details: 120 h, read-out: mortality in comparison with untreated controls (egg and larval mortality)
Experimental: For evaluating control of boll weevil (Anthonomus grandis) the test unit consisted of 96-well-microtiter plates containing an insect diet and 5-10 A. grandis eggs.
The compounds were formulated using a solution containing 75% v/v water and 25% v/v DMSO. Different concentrations of formulated compounds were sprayed onto the insect diet at 5 μl, using a custom built micro atomizer, at two replications.
After application, microtiter plates were incubated at about 25±1° C. and about 75±5% relative humidity for 5 days. Egg and larval mortality was then visually assessed.

[1] = 500 ppm, sprayed rice seedlings, after 72 hours

C[n+]1c([O-])c(-c2ccccc2)c(=O)n2c1CCC2c1ccc(Cl)nc1 (centres unmarked) [Compound C-1]
> 75%: mortality at 500 ppm (Nephotettix virescens; 72 h) | mortality at 2500 ppm (Heliothis virescens) | mortality at 2500 ppm (Megoura viciae) | mortality at 500 ppm (Nilaparvata lugens; 72 h) | mortality at 2500 ppm (Myzus persicae) | mortality at 500 ppm (Dichromothrips corbetti; 72 h)

CC[n+]1c([O-])c(-c2ccccc2)c(=O)n2c1CCCC2c1ccc(Cl)nc1 (centres unmarked) [Compound C-9]
> 75%: mortality at 500 ppm (Tetranychus spp) | mortality at 2500 ppm (Megoura viciae) | mortality at 2500 ppm (Myzus persicae)

CN1C(=O)C(c2ccccc2)=C([O-])[N+]2=C(c3cnc(Cl)s3)CSC12 (centres unmarked) [Compound C-38]
> 75%: mortality at 500 ppm (Nephotettix virescens; [1]) | mortality at 2500 ppm (Heliothis virescens; 2500 ppm, sprayed onto insect diet, 5 days) | mortality at 2500 ppm (Megoura viciae; 2500 ppm, sprayed broad bean leaf disks, 5 days) | mortality at 500 ppm (Nilaparvata lugens; [1]) | mortality at 2500 ppm (Myzus persicae; 2500 ppm, in aphid diet, 3 days) | mortality at 500 ppm (Dichromothrips corbetti; 500 ppm, floral immersion, 72 hours after treatment)

CCn1c([O-])c(-c2cc(Cl)cc(Cl)c2)c(=O)[n+]2c1COC2c1ccc(Cl)nc1 (centres unmarked) [Compound C-44]
> 75%: mortality at 2500 ppm (Anthonomus grandis) | mortality at 2500 ppm (Heliothis virescens) | mortality at 2500 ppm (Megoura viciae) | mortality at 2500 ppm (Myzus persicae)

Cn1c2[n+](c([O-])c(-c3ccccc3)c1=O)[C@@H](c1cnc(Cl)s1)CC2 [Compound C-42]
> 75%: mortality at 500 ppm (Nephotettix virescens; 72 h) | mortality at 500 ppm (Tetranychus spp) | mortality at 500 ppm (Nilaparvata lugens; 72 h) | mortality at 500 ppm (Dichromothrips corbetti; 72 h)

Reference: patent publication US11019820B2 (BASF SE, priority 2013, dated 2021)
